Key:
Type in all cases: cell-based
Lar 3′UTR = experiment: dual-luciferase 3′UTR reporter assay, pAC-Lar; settings: luciferase reporter with Lar 3′UTR, drosophila S2 cell lines; average of at least two independent experiments
Method: (§1) In order to determine whether the target genes identified in Example 7 are in actuality targets of miR-8 and miR-200 family miRNAs, the inventors performed cloning. In other words, they inserted a luciferase gene into downstream of each target gene's 3′UTR containing the miRNA target sites. Specifically, in order to obtain cDNAs of respective target genes, from drosophila S2 cell lines or human Hela cell lines, total RNA was extracted by using RNeasy mini kit (QIAGEN, US). 1 μg of total RNA and 1 μl of Oligo-dT (Invitrogen, US) were charged with up to 50 μl of distilled water, and placed into SuperScript First-Strand Synthesis System (Invitrogen, US), followed by RT-PCR reaction. Through the reaction at 65° C. for 6 min, at 4° C. for 5 min, at 42° C. for 60 min, at 95° C. for 5 min, and at 4° C. for 5 min, cDNA was synthesized. […]
(§2) Reporter plasmids and renilla luciferase expression vectors (Promega, US), as noted in Table 4, and miRNAs of miR-200 family of miR-141, miR-200a (hsa-miR-200a, SEQ ID: 87: 5′-[…]-3′), miR-200b, miR-200c (has-miR-200c, SEQ ID: 88: 5′-[…]-3′) and miR-429, and miR-8 (dme-miR-8, SEQ ID: 89: 5′-[…]-3′) were bought from Samchonri and cotransfected into drosophila S2 cell lines or human Hela cell lines. Then, the activities of luciferase were measured through dual-luciferase assay (Promega, US) by a luminometer (Biorad). […]

ush 3′UTR = experiment: dual-luciferase 3′UTR reporter assay, pAC-ush; settings: luciferase reporter with ush 3′UTR, drosophila S2 cell lines; average of at least two independent experiments
Method: as §1, §2

Ced-12 3′UTR = experiment: dual-luciferase 3′UTR reporter assay, pAC-Ced-12; settings: luciferase reporter with Ced-12 3′UTR, drosophila S2 cell lines; average of at least two independent experiments
Method: as §1, §2

ebf 3′UTR = experiment: dual-luciferase 3′UTR reporter assay, ebf; settings: luciferase reporter with ebf 3′UTR, drosophila S2 cell lines; average of at least two independent experiments
Method: as §1, §2

CG12333 3′UTR = experiment: dual-luciferase 3′UTR reporter assay, pAC-CG12333; settings: luciferase reporter with CG12333 3′UTR, drosophila S2 cell lines; average of at least two independent experiments
Method: as §1, §2

CG8445 3′UTR = experiment: dual-luciferase 3′UTR reporter assay, pAC-CG8445; settings: luciferase reporter with CG8445 3′UTR, drosophila S2 cell lines; average of at least two independent experiments
Method: as §1, §2

Lap1 3′UTR = experiment: dual-luciferase 3′UTR reporter assay, pAC-Lap1; settings: luciferase reporter with Lap1 3′UTR, drosophila S2 cell lines; average of at least two independent experiments
Method: as §1, §2

dbo 3′UTR = experiment: dual-luciferase 3′UTR reporter assay, pAC-dbo; settings: luciferase reporter with dbo 3′UTR, drosophila S2 cell lines; average of at least two independent experiments
Method: as §1, §2

## 5′-UAAUACUGUCAGGUAAAGAUGUC-3′ (listed as RNA, chemistry not given here) [miR-8]
Lar 3′UTR
  Repression fold, Lar: 0.42 fold
Ush 3′UTR
  Repression fold, ush: 0.71 fold
Ced-12 3′UTR
  Repression fold, Ced-12: 0.51 fold
Ebf 3′UTR
  Repression fold, ebf: 0.75 fold
CG12333 3′UTR
  Repression fold, CG12333: 0.59 fold
CG8445 3′UTR
  Repression fold, CG8445: 0.43 fold
Lap1 3′UTR
  Repression fold, Lap1: 0.46 fold
Dbo 3′UTR
  Repression fold, dbo: 0.54 fold

From patent US20130011845A1, “MICRORNA REGULATING THE INSULIN SIGNALING PATHWAY, AND METHOD FOR SCREENING MATERIAL FOR CONTROLLING THE ACTION OF A TARGET THEREOF” (SNU R & DB Foundation, priority 2009, published 2013)
